Entries after “also recorded” stand apart in the source; their conditions may differ.
Key:
[1] = system: TFF3, MUC2, DEFA5, ZO-1, HSPA1A, Reg3b, Reg3g; test: Expression of genes relative to β-Actin in pre-operative and post-ICR mice; assay type: in vivo, mouse; settings: post-ICR with 2′ FL supplementation
[2] = system: mouse model of adaptation following extensive ileocecal resection (ICR); test: Weight change after ileocecal resection (ICR) in mice; assay type: in vivo; settings: for weight / weight gain compared to control after ICR: 56 day experiment, on and beyond postoperative day 21
From the text: A mouse model of adaptation following intestinal resection was previously reported. Under the aid of an operating microscope and utilizing sedation with 2% isoflurane, a midline incision was made […] and the bowel was eviscerated (FIG. 7). […] Intestinal continuity was restored by end-to-end anastomosis and the abdomen of mice was closed (FIG. 9). The mice received one dose of intraperitoneal broad-spectrum antibiotics. In particular, C57 Black 6 mice of 8 to 10 weeks in age were subjected to ileocecal resection (FIG. 11). 5 animals were carried to post-operative day 56 in the usual fashion. Seven animals were carried to the same time point but supplemented with 2'Fucosyllactose. 2'FL was added to both liquid diet (LD) and standard diet (SD) with water to achieve a final concentration of 21⁄2 grams per liter. All animals were weighed once daily during the first week then once every other day thereafter. Male C57BL/6 mice (Jackson Labs, Me.) of 8 to 10 weeks of age were weighed and started on an exclusive polymeric formula diet one day prior to experiment start (Jevity 1 Cal, Abbott Nutrition, Columbus, Ohio). All mice were administered one dose of intraperitoneal Zosyn (at approximately 100 mg/kg) on experiment day 0. All animals were grouped by operation status and subgrouped into treatment and control arms (Table 4). Liquid diet was refreshed and weights obtained daily for 7 days then all mice were transitioned to a standard chow diet with access to water. Animals in both groups were weighed every other day and taken to 21 or 56 days for experiment completion. All animal studies were approved by the Cincinnati Children's Hospital Medical Center Institutional Animal Care and Use Committee. Non-operated animals were maintained as described above. Operated animals were taken to the operating room on experimental day 0 and underwent ileocecal resection (ICR) as previously described in […] et al. (2007) American journal of physiology Gastrointestinal and liver physiology 293: G1013-1022. Under the aid of an operating microscope and utilizing sedation with 2% isoflurane, a midline incision was made and the bowel eviscerated. The ileocecal junction was identified and approximately 12 cm of ileum and cecum were resected. Resected small bowel tissue and luminal contents were collected as described below. Intestinal continuity was restored by end-to-end anastomosis and the abdomen was closed (FIG. 28). ICR mice were then assigned to control or treatment subgroups, were administered analgesia with subcutaneous buprenorphine (0.05-0.1 mg/kg) and recovered overnight in a standard neonatal incubator warmed to approximately 38 degrees Celsius. Control (non-operated) animals were maintained as described above. Beginning on experiment day 0, treatment animals were supplemented with 2'-Fucosyllactose. 2'-FL was added to formula then water to a final concentration of 2.5 grams per liter. Formula was refreshed daily and water refreshed every other day. […] Intestinal length was compared across groups using the Wilcoxon rank-sum test as values were not normally distributed. Histologic count data was averaged per mouse across two samples and compared by the Wilcoxon rank-sum test. Weight data was analyzed using Stata version 13.0 (StataCorp LP, TX). Remaining morphometric and histologic data were analyzed using GraphPad Prism version 5 (GraphPad Software Inc, CA).

Compound: C[C@@H]1O[C@@H](O[C@H]2[C@H](O[C@H]3[C@H](O)[C@@H](O)C(O)O[C@@H]3CO)O[C@H](CO)[C@H](O)[C@@H]2O)[C@@H](O)[C@H](O)[C@@H]1O (stereo partly shown) [2′-FL, 2′-fucosyllactose]
- expression of genes TFF3, DEFA5, HSPA1A, Reg3b, and Reg3g relative to β-Actin [1]: increased expression
- time to return to preoperative weight after ICR ([2]; 2′-FL supplemented ICR subgroup): 3 to 4 weeks
- body weight lost during the first postoperative week ([2]; 2′-FL supplemented ICR subgroup, 2.5 grams per liter in formula then water): approximately 10%
- weight / weight gain compared to control after ICR [2]: improved growth; also recorded: increased weight gain; also recorded: gained more weight
- weight / weight gain compared to control after ICR ([2]; listed as 2′FL): improved late-term weight-gain profile
- weight difference between control and 2′-FL supplemented subgroups ([2]; animals taken to harvest at postoperative day 21): no significant weight difference
- percent of preoperative body weight achieved ([2]; at 56 days after ICR, 2′-FL supplemented ICR subgroup): 110%
